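Assay format: 96-well plates, 48-hour exposure. The concentration for 50% growth inhibition is given as GI50.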 Calls of active or inactive are those of the source. Cut-off read from the data, not from the text of the source: active = GI50 up to about 1.1 µM and inactive = higher.
How the values were obtained:
Assay in all cases: growth of human tumour cells (NCI), 48 h
786-0 = test system: 786-0
ACHN = test system: ACHN
COLO 205 = test system: COLO 205
DU-145 = test system: DU-145
K562 = test system: K562
KM12 = test system: KM12
M14 = test system: M14
NCI-H226 = test system: NCI-H226
NCI-H23 = test system: NCI-H23
NCI/ADR-RES = test system: NCI/ADR-RES
OVCAR-8 = test system: OVCAR-8
PC-3 = test system: PC-3
SF-268 = test system: SF-268
SK-MEL-28 = test system: SK-MEL-28
SW-620 = test system: SW-620
U-251 = test system: U-251
HOP-92 = test system: HOP-92
HT-29 = test system: HT-29
NCI-H522 = test system: NCI-H522

Measured: GI50

CCOC(=O)[C@H]1C[C@@H](C(=O)c2ccccc2)N2N=C(c3ccc(Br)cc3)C=C[C@H]12
inactive: 786-0 > 100 µM | ACHN > 100 µM | COLO 205 > 100 µM | DU-145 > 100 µM | K562 > 100 µM | KM12 > 100 µM | M14 > 100 µM | NCI-H226 > 100 µM | NCI-H23 > 100 µM | NCI/ADR-RES > 100 µM | OVCAR-8 > 100 µM | PC-3 > 100 µM | SF-268 > 100 µM | SK-MEL-28 > 100 µM | SW-620 > 100 µM | U-251 > 100 µM

O=CC12c3ccccc3C(c3ccccc31)C1C(=O)NC(=O)C12 (configuration not stated)
inactive: 786-0 > 100 µM | ACHN > 100 µM | COLO 205 > 100 µM | DU-145 > 100 µM | HOP-92 > 100 µM | HT-29 > 100 µM | K562 66.8 µM | KM12 > 100 µM | M14 > 100 µM | NCI-H226 > 100 µM | NCI-H23 > 100 µM | NCI-H522 53 µM | NCI/ADR-RES > 100 µM | OVCAR-8 > 100 µM | PC-3 > 100 µM | SF-268 > 100 µM | SK-MEL-28 > 100 µM | SW-620 > 100 µM | U-251 > 100 µM

Cc1ccc(S(=O)(=O)NC(=O)NCCc2ccc(O)c(O)c2)cc1
inactive: 786-0 > 100 µM | ACHN > 100 µM | COLO 205 > 100 µM | DU-145 > 100 µM | HOP-92 > 100 µM | HT-29 > 100 µM | K562 > 100 µM | KM12 > 100 µM | M14 > 100 µM | NCI-H226 > 100 µM | NCI-H23 > 100 µM | NCI-H522 > 100 µM | NCI/ADR-RES > 100 µM | OVCAR-8 97.3 µM | PC-3 > 100 µM | SF-268 > 100 µM | SK-MEL-28 > 100 µM | SW-620 > 100 µM | U-251 > 100 µM

CC1(C)C2CCC1(CC(=O)O)C(Cl)C2 (configuration not stated)
inactive: 786-0 > 100 µM | ACHN > 100 µM | COLO 205 > 100 µM | DU-145 > 100 µM | HT-29 > 100 µM | K562 > 100 µM | KM12 > 100 µM | M14 > 100 µM | NCI-H226 > 100 µM | NCI-H23 > 100 µM | NCI-H522 > 100 µM | NCI/ADR-RES > 100 µM | OVCAR-8 > 100 µM | PC-3 > 100 µM | SF-268 > 100 µM | SK-MEL-28 > 100 µM | SW-620 > 100 µM | U-251 > 100 µM

— ChEMBL document CHEMBL1201862, “PubChem BioAssay data set” (2004)
